Reference: patent US20190282673A1, “STAPHTAME ACTIVITY ON BIOFILMS” (priority 2016, published 2019)
Where “and” joins values, the source holds several entries; their conditions need not be identical. Equal values may be shown once. Read-outs that look alike come from different tables or passages of the source.

Key:
[1] = system: S. aureus BK18 and B9377 persisters; assay: P128 and antibiotic activity on persisters (CFU); format: cell-based, Staphylococcus aureus; settings: for CFU/mL after treatment of persisters: 1×MIC, P128 1 h, antibiotics 6 h
Procedure: Persisters were generated as above were treated with P128 and antibiotics (Ref: Gutiérrez, et al. (2014) Effective Removal of Staphylococcal Biofilms by the Endolysin LysH5 PLoS One 9(9): e107307).
To 450 μL aliquots, P128. Daptomycin and Vancomycin (in saline) were added (individually) each at 1×MIC Conc., and another 450 μL aliquot was taken as control. The persister samples treated with P128 were incubated for 1 h, 37° C., and 200 rpm and those treated with antibiotics were incubated for 6 h, 37° C., and 200 rpm. After incubation samples were serially log diluted and plated.

S. aureus biofilm = assay: Bactericidal activity on biofilm (CFU reduction); format: cell-based, Staphylococcus aureus; settings: for Reduction in CFU counts: S. aureus MW2 biofilm on catheters, P128 8 μg/mL, daptomycin 10 μg/mL, vancomycin 15 μg/mL
Procedure: In order to determine whether P128 could also act as a bactericidal agent in biofilms, the CFU reduction were monitored in S. aureus ATCC 29213 72 h preformed biofilms treated with various concentrations of P128 for 6 h. For CFU enumeration in catheter biofilm, the catheters were removed from the tubes, rinsed twice in PBS and placed in eppendorf tubes containing 1 mL PBS. To release the adhered biofilm into PBS, the catheters were scraped using inoculation loop. The samples were vortexed thoroughly and plated on LB agar plates.

S. epidermidis biofilms = assay: MBIC and checkerboard synergy on preformed biofilm (MTT assay); format: cell-based, Staphylococcus epidermidis; settings: for MBIC (drug alone): 6 hr treatment; for MBIC: S. epidermidis ATCC 12228 biofilm
Procedure: The ability of P128 to inhibit growth of S. aureus in a preformed biofilm was measured by determining minimum biofilm inhibition concentration (MBIC), defined as minimum concentration showing growth inhibition in a MTT based assay. Since P128 kills Staphylococcus cultures rapidly, it was expected to show a rapid effect on biofilms as well. Paul, et al. (2011) “A novel bacteriophage Tail-Associated Muralytic Enzyme (TAME) from Phage K and its development into a potent antistaphylococcal protein” BMC Microbiol. 11:226.
Culture conditions were optimized for reproducibly obtaining a robust biofilm of S. epidermidis in 96 well microtitre plates. For this purpose, biofilms were generated in microtiter plates and the surface-adhered cultures remaining after washing off the planktonic cells were analyzed at the end of 72 h by MTT dye assay. Briefly, an overnight-grown culture of the S. epidermidis strain was diluted 1:40 in LB broth. 200 μL of diluted culture was aliquoted into microtiter plate wells. Microplates were placed in a shaker-incubator set to 37° C., and 100 rpm for 24 h followed by 48 h incubation under static conditions at 37° C. The contents of wells were aspirated and discarded. Wells were washed twice with 1×PBS and the presence of biofilm in the wells at the end of 72-hour period was determined by metabolic dye-reduction assay method using MTT (3-(4,5-dimethylthiazol-2-yl)-2,5-diphenyltetrazolium bromide; Himedia). In this assay, live cells reduce the dye leading to color formation which can be read at 570 nm and the intensity of color can be correlated to number of live cells.
[…] LB supplemented with 50 μg/mL Ca^++ was used for daptomycin treatment wells. The contents of the well was aspirated out and discarded. The biofilm adhered to the wells was quantified by MTT assay as described above. In each experiment, in addition to the combination MBIC, the MBIC of each drug was also determined individually. The fractional MBIC concentrations were determined by MTT dye method as described above. The FICI and synergy was calculated.

S. aureus COL = format: in vivo, BALB/c mice; settings: P128 0.2 mg/kg ip single dose, or both
Procedure: A standard mouse model of S. aureus bacteremia was used. Zuluaga, et al. (2006) “Neutropenia induced in out bred mice by a simplified low-dose cyclophosphamide regimen: Characterization and applicability to diverse experimental models of infectious diseases” BMC Infect. Dis. 6:55-64. Female BALB/c mice of 8-9 weeks age were challenged by intraperitoneal route with S. aureus COL at 10^9 CFU per animal. After the bacterial challenge, animals were treated through parenteral routes with P128 alone or P128 in combination with standard of care antibiotics (e.g., vancomycin, daptomycin, linezolid, oxacillin, etc.). Animals were monitored for survival for a period of 72 hours. In this model of infection, normal as well as immunocompromised (neutropenia induced by cyclophosphamide) mice were used to evaluate P128 and antibiotic-P128 combinations.
Eight to nine weeks old female BALB/c mice were challenged intraperitoneally with 10^9 CFU of S. aureus COL. At 2 hours post-infection, animals were treated with either P128 at 0.2 mg/kg via intraperitoneal route, or vancomycin at 55 mg/kg by subcutaneous route, or a combination of both by respective routes. Groups treated with only vancomycin or combination of P128 and vancomycin were administered a second dose of vancomycin 12 hours after the first dose.
In the same model, efficacy of daptomycin in combination with P128 was evaluated. At 2 hours post-infection, animals were treated with either P128 at 0.2 mg/kg administered by intraperitoneal route, or daptomycin at 12.5 mg/kg administered by subcutaneous route; or a combination of both administered by respective routes. Groups treated with only daptomycin or combination of P128 and daptomycin were administered a second dose of daptomycin 12 hours after the first daptomycin dose.

S. aureus MW2 biofilms = assay: Biofilm eradication/biomass removal, crystal violet staining; format: cell-based, Staphylococcus aureus; settings: for Activity on preformed biofilm, crystal violet: 500 μg/mL for 24 h, MSSA and MRSA strains
Procedure: Dis. 209:1469-78 was followed. Briefly, S. aureus MW2 strain grown on blood agar plates was inoculated into TSB with 2% glucose and the culture was grown overnight. The culture was diluted 1:50 in TSB to achieve an […] of the diluted culture was added to 1.8 mL of TSB media aliquoted into each well of a 24 well plate (˜5×10^5 CFU). The plates were kept at 37° C. under static conditions for 18 h, the contents were aspirated, the wells were washed twice with 2.0 mLmL of 1×PBS, and 1 mLmL of media+1 mLmL of the drug was added to each well and incubated at 37° C. for 0, 2, 4 and 24 h. The contents were aspirated out at the stipulated time points and the wells were washed with 2 mL of 1×PBS. The wells were allowed to dry at 37° C. for 15 min and stained with 1 mLmL of 1% CV for 5 min. The wells were washed with 1 mLmL of 1×PBS, air dried and observed for intensity of blue color.
0.1% CV was used for staining biofilms. Post staining and washing steps, 1 mL 30% acetic acid is added to each well, incubated in RT for 5-10 min, contents in the well are mixed thoroughly and OD was read at 570 nm.

[2] = S. epidermidis B9470 72 h preformed biofilm
[3] = S. epidermidis B9471 72 h preformed biofilm
[4] = S. epidermidis B9472 72 h preformed biofilm
[5] = S. aureus COL, Daptomycin 12.5 mg/kg sc 2 doses, 24 mice per group
[6] = S. aureus COL 10^9 CFU ip, Vancomycin 55 mg/kg sc 2 doses, 26 mice per group

| Molecule | CFU/mL after treatment of persisters ([1]; B9377 Daptomycin persisters) | CFU/mL after treatment of persisters ([1]; B9377 Vancomycin persisters) | CFU/mL after treatment of persisters ([1]; BK18 Daptomycin persisters) | CFU/mL after treatment of persisters ([1]; BK18 Vancomycin persisters) | Reduction in CFU counts (S. aureus biofilm) | MBIC (drug alone) (S. epidermidis biofilms; [2]) | MBIC (drug alone) (S. epidermidis biofilms; [3]) | MBIC (drug alone) (S. epidermidis biofilms; [4]) | Survival at 72 h post infection (S. aureus COL; [5]) | Activity on preformed biofilm, crystal violet (S. aureus MW2 biofilms) | Survival at 72 h post infection (S. aureus COL; [6]) | further results |
| --- | --- | --- | --- | --- | --- | --- | --- | --- | --- | --- | --- | --- |
| CCCCCCCCCC(=O)N[C@@H](Cc1c[nH]c2ccccc12)C(=O)N[C@H](CC(N)=O)C(=O)N[C@@H](CC(=O)O)C(=O)N[C@@H]1C(=O)NCC(=O)N[C@@H](CCCN)C(=O)N[C@@H](CC(=O)O)C(=O)N[C@H](C)C(=O)N[C@@H](CC(=O)O)C(=O)NCC(=O)N[C@H](CO)C(=O)N[C@@H]([C@H](C)CC(=O)O)C(=O)N[C@@H](CC(=O)c2ccccc2N)C(=O)O[C@@H]1C [Daptomycin, daptomycin] | 1 × 10^2 CFU/mL | 6 × 10^5 CFU/mL | 1 × 10^1 CFU/mL | 7.5 × 10^5 CFU/mL | 1 log | 15.6 µg/mL | 15.6 µg/mL | 7.8 µg/mL | 45% | insignificant activity | – | – |
| CC(=O)NC[C@H]1CN(c2ccc(N3CCOCC3)c(F)c2)C(=O)O1 [Linezolid, linezolid] | – | – | – | – | – | 7.8 µg/mL | 250 µg/mL | 250 µg/mL | – | insignificant activity | – | – |
| CN[C@H](CC(C)C)C(=O)N[C@H]1C(=O)N[C@@H](CC(N)=O)C(=O)N[C@H]2C(=O)N[C@H]3C(=O)N[C@H](C(=O)N[C@H](C(=O)O)c4cc(O)cc(O)c4-c4cc3ccc4O)[C@H](O)c3ccc(c(Cl)c3)Oc3cc2cc(c3O[C@@H]2O[C@H](CO)[C@@H](O)[C@H](O)[C@H]2O[C@H]2C[C@](C)(N)[C@H](O)[C@H](C)O2)Oc2ccc(cc2Cl)[C@H]1O [Vancomycin, vancomycin] | 2.6 × 10^2 CFU/mL | 4 × 10^5 CFU/mL | 1 × 10^1 CFU/mL | 8 × 10^5 CFU/mL | no significant effect | 7.8 µg/mL | 250 µg/mL | 250 µg/mL | – | insignificant activity | 46% | – |
| P128: anti-staphylococcal chimeric protein: phage tail associated muralytic enzyme (TAME) cell wall-degrading region plus staphylococcus-specific binding region; SEQ ID NO: 1 (protein, P128 chimera) MSLDSLKKYNGKLPKHDPSFVQPGNRHYKYQCTWYAYNRRGQLGIPVPLWGDAADWIGGAKGAGYGVGRTPKQGACVIWQRGVQGGSPQYGHVAFVEKVLDGGKKIFISEHNYATPNGYGTRTIDMSSAIGKNAQFIYDKKLETPNTGWKTNKYGTLYKSESASFTPNTDIITRTTGPFRSMPQSGVLKAGQTIHYDEVMKQDGHVWVGYTGNSGQRIYLPVRTWNKSTNTLGVLWGTIK | 1 × 10^1 CFU/mL | 2.5 × 10^1 CFU/mL | 1 × 10^1 CFU/mL | 5 × 10^1 CFU/mL | 3 log | 32 µg/mL and 16 µg/mL | 32 µg/mL | 32 µg/mL | 45% | – | 30% | Drop in CFU ([1]; Vancomycin persisters (1×10^6 CFU/mL) of S. aureus BK18 and B9377 treated with P128): ~5 log; CFU recovered ([1]; daptomycin persisters of S. aureus treated with P128): < 10 CFU/mL; Cells killed (S. aureus biofilm; S. aureus ATCC 29213 72 h biofilm, P128 7.8 μg/mL, 6 h): > 90%; Cell killing (S. aureus biofilm; S. aureus ATCC 29213 72 h biofilm, P128 greater than 31 μg/mL, 6 h): 99.9%; MBIC (S. epidermidis biofilms; 4 h): 7.8 µg/mL; MBIC (S. epidermidis biofilms; 6 h): 7.8 µg/mL; MBIC (S. epidermidis biofilms; 8 h): 7.8 µg/mL; MBIC (S. epidermidis biofilms; 24 h): >1000 µg/mL; Time of treatment to eliminate the biofilms (S. aureus MW2 biofilms; P128 at 1×MIC (8 μg/mL)): ≤ 2 h; OD570 of crystal violet vs cell control (S. aureus MW2 biofilms; even after 24 h): significant drop in OD |
